Results published in patent US11213514B2, “Alpha-1-adrenergic receptor agonist therapy” (The Regents of the University of California, priority 2016, dated 2022).

How the values were obtained:
[1] = tested on: neonatal rat ventricular myocytes; assay: Myocyte death caused by oxidative stress with H2O2; type: cell-based; conditions: neonatal rat ventricular myocytes (FIG. 7)
ERK = ERK activation in neonatal rat ventricular myocytes (pERK/ERK Western blot); type: cell-based; conditions: Rattus norvegicus, Ventricular myocyte; uninjured NRVMs, 15 minutes, propranolol pre-treatment; read-out: EC50, ERK phosphorylation
Text: FIGS. 4A-4F. […] The reaction was stopped immediately and lysates were blotted for total and phospho-ERK (pERK). FIG. 4A. Representative Western blot. FIG. 4B. […] FIG. 4C. Summary of pERK/ERK for experiments using 5 different NRVM isolations. The average pERK/ERK ratio for each experiment was derived from at least 2 individual wells and normalized to the pERK/ERK ratio for vehicle treated NRVMs. FIG. 4D and FIG. 4E. […] Heart lysates were blotted for pERK and ERK. Results were compared using one way ANOVA with Tukey post-test. FIG. 4F.
Dabuzalgron protects neonatal rat ventricular myocytes from cell death due to doxorubicin. […] (FIG. 4C).
Female Sprague-Dawley rats were from Charles River. NRVMs were isolated as previously described.7 Briefly, hearts from 1-2 day old rat pups were minced, digested serially in collagenase (Worthington)-containing solution, filtered, then pre-plated to exclude non-myocyotes. NRVMs were then plated on laminin-coated dishes in DMEM with 5% fetal bovine serum (Sigma F2442) for 24 hours. Experiments were carried out after 36-96 hours of serum starvation in the presence of insulin, transferrin, and BrdU. […]
All results are presented as mean±SEM. […] EC50 for ERK activation was calculated using sigmoidal dose-response analysis (Prism).

women = conditions: cited from earlier work
[2] = tested on: atrial natriuretic peptide, beta myosin heavy chain, alpha-skeletal actin transcripts; assay: qRT-PCR of molecular markers of hypertrophy in mouse hearts; type: in vivo; conditions: hearts of mice treated with dabuzalgron
Procedure: (§1) FIGS. 1A-1C. […] FIG. 1A. Blood pressure (BP) and heart rate (HR) were measured non-invasively in male mice for 10 consecutive days using a CODA Volume Pressure Recording tail cuff system (Kent Scientific). All daily values represent the average of at least 20 cuff inflations. Mice were acclimatized to the apparatus for the first 5 days, during which no drug was administered. […] FIG. 1B. […] Heart weight (HW, in mg) was indexed to tibia length (TL, in mm). FIG. 1C. Quantitative RT-PCR was performed using heart tissue snap frozen at the time of sacrifice. Target transcripts (ANP=atrial natriuretic peptide; MHCβ=myosin heavy chain beta; α-skAct=alpha skeletal actin) were quantified relative to two standard transcripts (Polr2a=DNA-directed RNA polymerase II, subunit A; TBP=TATA-binding protein).
We used qRT-PCR to assay traditionally accepted molecular markers of hypertrophy in the hearts of mice treated with dabuzalgron. There was no change in the transcript abundance of atrial natriuretic peptide, beta myosin heavy chain, or alpha-skeletal actin. (FIG. 1C)
Total RNA was isolated from cells and tissue (QiagenRNeasy Plus mini kit #74134) and analyzed using a NanoDrop (ThermoScientific). For qRT-PCR, one […]g of RNA was reverse transcribed using High Capacity cDNA Reverse Transcription Kit (Life Technologies #4368814). Two step qRT-PCR reactions contained 2% of the cDNA product. All reactions were performed in triplicate in a Roche 480 Light Cycler. Relative quantitation of PCR products used the ΔΔCt method relative to two validated reference genes (Tbp and Polr2a). Similar efficiencies were confirmed for all primers. All probes and primers were from Roche.

mouse heart = assay: Pressure overload cardiomyopathy caused by transverse aortic constriction; type: in vivo; conditions: mice, TAC day 0, osmotic minipumps from 4 weeks; both doses 20 ug/kg/d and 200 ug/kg/d; day 55
Procedure: FIG. 8. […] Cardiac function was measured before TAC, and every 2 weeks, using echocardiography.

rabbits = conditions: 10 μg/kg; cited from earlier work
pigs = conditions: 10 μg/kg; cited from earlier work
wild type mice [3] = assay: Tail cuff blood pressure and heart rate in uninjured mice; type: in vivo, mouse; conditions: any dose 1-100 μg/kg/day, gavage twice daily for 5 days
Procedure: as §1
Untreated mice were trained on the tail cuff apparatus daily for 5 days.
Tail cuff blood pressure (BP) and heart rate (HR) were obtained on awake mice by repeated measurements using a CODA Volume Pressure Recording tail cuff system (Kent Scientific).2 Mice were trained to the apparatus for 5 days prior to data collection. Systolic BP and HR measurements represent the average of at least 20 tail cuff inflations per mouse each afternoon.

wild type mice [4] = assay: Indexed heart weight after 7-day gavage treatment in uninjured mice; type: in vivo, mouse; conditions: for Body weight, final / Heart weight / Heart weight/tibia length / Heart/body weight: uninjured wild type mice, 7 days
Procedure: as §1

[5] = human, 1.5 mg by mouth twice daily
[6] = any dose 1-100 μg/kg/day, gavage twice daily for 7 days

Cc1c(OCC2=NCCN2)ccc(Cl)c1NS(C)(=O)=O [dabuzalgron, N-[6-chloro-3-(4,5-dihydro-1H-imidazol-2-ylmethoxy)-2-methylphenyl]methanesulfonamide]
myocyte death caused by oxidative stress with H2O2 [1]: prevents
EC50 (ERK): 480 nM
BP (women; [5]): did not alter
HR (women; [5]): did not alter
difference in urinary incontinence between dabuzalgron and placebo groups (women; interim analysis of the Phase 2 trials): no clinically meaningful difference
changes in BP (women; subjects who received dabuzalgron in any of these trials): no significant changes
tolerability (women; total of 1,223 women, Phase 1, two Phase 2 trials and open-label study): well tolerated
transcript abundance of alpha-skeletal actin [2]: no change
transcript abundance of atrial natriuretic peptide [2]: no change
transcript abundance of beta myosin heavy chain [2]: no change
cardiac function (fractional shortening) compared with vehicle (mouse heart): significant improvement
effect on BP (rabbits): no effect
effect on BP (pigs): no effect
HR vs vehicle (wild type mice [3]): no difference
systolic BP vs vehicle (wild type mice [3]): no difference
change in body weight (wild type mice [4]; [6]): no measurable change
change in heart weight (wild type mice [4]; [6]): no measurable change
Body weight, final (wild type mice [4]; 0.2 μg/kg/day gavage): 25.3 ± 0.4 g
Heart weight (wild type mice [4]; 0.2 μg/kg/day gavage): 106 ± 4 mg
Heart weight/tibia length (wild type mice [4]; 0.2 μg/kg/day gavage): 6.1 ± 0.3 mg/mm
Heart/body weight (wild type mice [4]; 0.2 μg/kg/day gavage): 0.42 ± 0.01%
Body weight, final (wild type mice [4]; 2 μg/kg/day gavage): 25.9 ± 0.8 g
Heart weight (wild type mice [4]; 2 μg/kg/day gavage): 106 ± 4 mg
Heart weight/tibia length (wild type mice [4]; 2 μg/kg/day gavage): 6.1 ± 0.2 mg/mm
Heart/body weight (wild type mice [4]; 2 μg/kg/day gavage): 0.41 ± 0.02%
Body weight, final (wild type mice [4]; 20 μg/kg/day gavage): 27.3 ± 1.1 g
Heart weight (wild type mice [4]; 20 μg/kg/day gavage): 110 ± 4 mg
Heart weight/tibia length (wild type mice [4]; 20 μg/kg/day gavage): 5.9 ± 0.2 mg/mm
Heart/body weight (wild type mice [4]; 20 μg/kg/day gavage): 0.41 ± 0.01%
Body weight, final (wild type mice [4]; 200 μg/kg/day gavage): 27.4 ± 1.6 g
Heart weight (wild type mice [4]; 200 μg/kg/day gavage): 113 ± 6 mg
Heart weight/tibia length (wild type mice [4]; 200 μg/kg/day gavage): 6.1 ± 0.3 mg/mm
Heart/body weight (wild type mice [4]; 200 μg/kg/day gavage): 0.41 ± 0.01%
